We go through 1 compound from US20190142829A1, “AMELIORATION OF ANGELMAN'S SYNDROME DEFICIENCIES” (Neuralstem, Inc., priority 2017, published 2019).

The structures appear in SMILES notation.

For assay [1], the system named is wild type mice. Briefly: LTP assay on post-mortem hippocampal slices after in vivo dosing, wild type mice. The conditions noted are these: 30 mg/kg phosphate salt i.p. daily for 18 days, FIG. 2. The procedure: (§1) Four groups (n=4/5 per group) of young adult mice (age ˜3 months) were administered 30mg/kg of the phosphate salt of NSI-189 i.p. daily for 13-15 days for behavior assays and for 18 days prior to termination followed by in vitro LTP assays or administered only vehicle. The groups included • (1) mice with Angelman syndrome (AS) treated with NSI-189, • (2) mice with Angelman syndrome (AS) treated with vehicle, • (3) wild-type littermates treated with NSI-189, and • (4) wild-type littermates treated with vehicle.

The subject of assay [2] is mice with Angelman syndrome (AS). Briefly: Fear-conditioning test, mouse model of Angelman syndrome. The format is in vivo. The settings on record: 30 mg/kg phosphate salt i.p. daily, 2 weeks, vs vehicle, p<0.01, FIG. 1. How it is done: as §1
The behavior assay conducted was fear-conditioning test as diagnostic of hippocampal memory function.

Assay [3] relates to hippocampal brain slices prepared from young adult Angelman mice. As to the kind of experiment: LTP in hippocampal brain slices treated in vitro, Angelman mice. The settings on record: slices from Angelman mice (maternal Ube3A deletion); transient treatment for 3.5 hours; Liu et al, SfN Abstract 2016. The assay is classed as cell-based. The text has this: Further, in a mouse model of Angelman syndrome, carrying the same maternal Ube3A deletion affected in human AS patients, the normal LTP is absent.

In assay [4] the test system is mice with Angelman syndrome (AS). Briefly: LTP assay on post-mortem hippocampal slices after in vivo dosing, AS mice. The settings on record: 30 mg/kg phosphate salt i.p. daily for 18 days, vs vehicle, p<0.05, FIG. 2. How it is done:
as §1

For assay [5], the system named is AS mice. As to the kind of experiment: Wire hang test (Hanging Wire test), AS mice. The assay is classed as in vivo. The settings on record: phosphate i.p. over 21 days: D1-D7 3, D8-D14 10, D15-D21 30 mg/kg, maximum 120 sec, ultimately matched wild type, FIG. 3. How it is done: The wire hang test evaluates muscle strength as well as motor coordination. The set up includes a wire (0.2 cm in diameter×54.5 cm in length) stretched horizontally between two poles and elevated from a padded surface. The test starts when the mouse hangs onto the wire from its two forelimbs and lasts for 120 sec maximum. The time before falling, or the maximum score of 120 sec if no fall occurred, is recorded for each animal.
Four groups 5 mice for each group were used. Controls were administered vehicle and test groups were administered NSI-189 phosphate i.p. over 21 days as follows: D1-D7—3 mg/kg NSI-189 phosphate; D8-D14—10 mg/kg NSI-189 phosphate; D15-D21—30 mg/kg NSI-189 phosphate.
As shown, the AS mice administered only vehicle were not able to hang onto the wire for more than about 20 seconds, whereas AS mice treated with NSI-189 ultimately matched the times of wild type mice at about 100 seconds.

In assay [6] the test system is hippocampal slices from normal, healthy, young adult mice (field CA1). Briefly: LTP elicited by theta burst stimulation in hippocampal slices treated in vitro, normal mice. The format is cell-based. The conditions noted are these: 100 nM to 10 μM for up to 3.5 h before theta burst stimulation, applicant's work, Liu et al, SfN Abstract 2016. How it is done: In work by applicant, hippocampal slices from normal, healthy, young adult mice were treated with various concentrations of NSI-189 (100 nM to 10 μM) for various times up to 3.5 h, before applying theta burst stimulation (TBS) to elicit long-term potentiation (LTP) in field CA1.

For `CC(C)CCNc1ncccc1C(=O)N1CCN(Cc2ccccc2)CC1.O=P(O)(O)O` [NSI-189], the results for the “LTP in post-mortem hippocampal slices” value in assay [1] and in assay [4] were “improved” and “restoration of LTP”, respectively. Besides, in assay [2], the “freezing time following ring-tone (memory deficit)” value is on record as “memory deficit was diminished”. For the same compound, in assay [3], the “effect on LTP activity” value was “restore the LTP activity to normal level”. In assay [5], the “time before falling (hanging on the wire)” value was “about 100 seconds”. In assay [6], the “effect on long-term potentiation (LTP) in field CA1” value was “statistically significant enhancement of the normal LTP level”.
